Reference: ChEMBL document CHEMBL1201862, “PubChem BioAssay data set” (2004)
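Briefly, cells in 96-well plates were exposed to five compound concentrations for 48 h, and endpoints were estimated by linear interpolation. GI50 is the concentration that inhibits growth by half.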 Activity calls are given as the source filed them. Cut-off read from the data, not from the text of the source: active = GI50 up to about 1.1 µM and inactive = higher.

Legend:
Assay in all cases: inhibition of tumour cell growth, NCI panel, 48 h
MOLT-4 = system: MOLT-4
LOX IMVI = system: LOX IMVI
NCI-H226 = system: NCI-H226
Malme-3M = system: Malme-3M
A549 = system: A549
TK-10 = system: TK-10
SF-295 = system: SF-295
OVCAR-5 = system: OVCAR-5
NCI-H522 = system: NCI-H522
UO-31 = system: UO-31
UACC-257 = system: UACC-257
OVCAR-8 = system: OVCAR-8
HCT-116 = system: HCT-116
SR = system: SR
SNB-19 = system: SNB-19
ACHN = system: ACHN
IGROV-1 = system: IGROV-1
OVCAR-3 = system: OVCAR-3
UACC-62 = system: UACC-62
MDA-MB-435 = system: MDA-MB-435

SMILES	GI50 (MOLT-4)	GI50 (LOX IMVI)	GI50 (NCI-H226)	GI50 (Malme-3M)	GI50 (A549)	GI50 (TK-10)	GI50 (SF-295)	GI50 (OVCAR-5)	GI50 (NCI-H522)	GI50 (UO-31)	GI50 (UACC-257)	GI50 (OVCAR-8)	GI50 (HCT-116)	GI50 (SR)	GI50 (SNB-19)	GI50 (ACHN)	GI50 (IGROV-1)	GI50 (OVCAR-3)	GI50 (UACC-62)	GI50 (MDA-MB-435)
COC1=CC(=O)c2c(cc3c(c2O)-c2c(OC)cc4cc5c(c(O)c4c2OC(=O)CC(C)(O)C3)C(=O)CC(C)(O)C5)C1=O (configuration not stated)	2.27 µM (inactive)	1.22 µM (inactive)	1.84 µM (inactive)	1.82 µM (inactive)	2.68 µM (inactive)	3.85 µM (inactive)	1.44 µM (inactive)	2.14 µM (inactive)	1.32 µM (inactive)	1.73 µM (inactive)	1.76 µM (inactive)	1.55 µM (inactive)	2.45 µM (inactive)	2.02 µM (inactive)	1.71 µM (inactive)	2.64 µM (inactive)	1.9 µM (inactive)	0.577 µM (active)	1.19 µM (inactive)	–
O=C(CN1c2ccccc2Sc2ccccc21)N1CCNCC1	64.7 µM (inactive)	> 100 µM (inactive)	78.7 µM (inactive)	> 100 µM (inactive)	> 100 µM (inactive)	> 100 µM (inactive)	> 100 µM (inactive)	> 100 µM (inactive)	–	95.5 µM (inactive)	> 100 µM (inactive)	> 100 µM (inactive)	> 100 µM (inactive)	–	> 100 µM (inactive)	> 100 µM (inactive)	71.4 µM (inactive)	> 100 µM (inactive)	> 100 µM (inactive)	> 100 µM (inactive)
N=C(N)NCC[C@H](NC(=O)OCCCCCn1ccc(=O)[nH]c1=O)C(=O)O	> 100 µM (inactive)	> 100 µM (inactive)	> 100 µM (inactive)	> 100 µM (inactive)	> 100 µM (inactive)	> 100 µM (inactive)	> 100 µM (inactive)	> 100 µM (inactive)	–	> 100 µM (inactive)	> 100 µM (inactive)	> 100 µM (inactive)	> 100 µM (inactive)	–	> 100 µM (inactive)	> 100 µM (inactive)	–	> 100 µM (inactive)	> 100 µM (inactive)	> 100 µM (inactive)
COc1cc(/C=C2\CCC(C)/C(=C\c3cc(OC)c(OC)c(OC)c3)C2=O)cc(OC)c1OC (configuration not stated)	–	3.27 µM (inactive)	–	–	2.79 µM (inactive)	2.63 µM (inactive)	–	3.38 µM (inactive)	–	3.99 µM (inactive)	3.78 µM (inactive)	2.4 µM (inactive)	3.32 µM (inactive)	–	4.51 µM (inactive)	3.02 µM (inactive)	2.38 µM (inactive)	–	1.82 µM (inactive)	3.03 µM (inactive)
CCCN1C(=O)C/C(=C\C(C)=O)Nc2ccccc21	> 100 µM (inactive)	> 100 µM (inactive)	37.2 µM (inactive)	> 100 µM (inactive)	> 100 µM (inactive)	> 100 µM (inactive)	> 100 µM (inactive)	> 100 µM (inactive)	> 100 µM (inactive)	> 100 µM (inactive)	–	> 100 µM (inactive)	> 100 µM (inactive)	> 100 µM (inactive)	> 100 µM (inactive)	> 100 µM (inactive)	> 100 µM (inactive)	> 100 µM (inactive)	> 100 µM (inactive)	–
CC(C(=O)NCNC(=O)c1ccccc1)C(=O)Nc1ccccc1 (configuration not stated)	> 10 µM (inactive)	–	> 100 µM (inactive)	> 100 µM (inactive)	> 100 µM (inactive)	> 100 µM (inactive)	> 100 µM (inactive)	> 100 µM (inactive)	> 100 µM (inactive)	> 100 µM (inactive)	> 100 µM (inactive)	> 100 µM (inactive)	> 100 µM (inactive)	–	> 100 µM (inactive)	> 100 µM (inactive)	> 100 µM (inactive)	–	> 100 µM (inactive)	> 100 µM (inactive)
